US20040034001A1, “Treatment of hypertension in women receiving hormone replacement therapy” (Schering AG, priority 2002, published 2004)

Test system: hypertensive postmenopausal women
Experiment: Post hoc analysis of blood pressure in women with elevated BP at baseline, multicenter 1-year endometrium study, no ACE inhibitor
Assay type: in vivo, human
Settings: after 11 weeks; subset with baseline systolic BP>=140 mm Hg and or diastolic BP>=90 mm Hg
Description: Administration of DRSP/E2 to Hypertensive Postmenopausal Women not being Treated with an ACE Inhibitor.
In a multicenter, double-blind randomized study examining the effect on the endometrium of 1142 postmenopausal women treated for 1 year with 1 of 4 doses of DRSP (0.5,1,2, and 3 mg) compared with E2 alone, mean systolic and diastolic blood pressure decreased from baseline for all treatment groups.

## C[C@]12CC[C@@H]3c4ccc(O)cc4CC[C@H]3[C@@H]1CC[C@@H]2O [E2, 17-β-estradiol]
  mean decrease in systolic blood pressure: −3.7 mm Hg
